{
  "source": "patent US20240293367A1",
  "about": "“METHODS OF TREATING DISORDERS WITH A […]” (Cybin IRL Limited, priority 2023, published 2024)",
  "key": {"[1]": {"experiment": "VAS ratings of 'Any drug effect' in the Phase I/IIa study", "assay_type": "in vivo, human", "source_text": "The visual analogue scale (VAS) is a psychometric response scale that can be used in questionnaires. It is a measurement instrument for subjective characteristics or attitudes that cannot be directly measured. When responding to a VAS item, respondents specify their level of agreement to a statement by indicating a position along a continuous line between two end points, usually a horizontal 100-mm line marked from “not at all,” “definitely not,” or the like, on the left to “extremely,” “definitely so,” or the like, on the right. The Bond and Lader VAS involves the subject indicating (with vertical marks) on sixteen horizontal 100-mm visual analogue scales how he/she feels. From these measurements, three main factors are calculated as described by Bond and Lader: alertness (from nine scores), contentedness (often called mood; from five scores), and calmness (from two scores). The Bowdle VAS and Drug Rating VAS provides the subject with items of the drug rating questionnaire: feel drug, like drug, and dislike drug. The VAS any drug effect involves the subject indicating (with vertical marks) on horizontal 100-mm visual analogue scales with the any drug effects item (“I can feel any drug effect”). In some embodiments, the subject has a maximum VAS score (e.g., Bond and Lader VAS, Bowdle VAS and Drug Rating VAS, and/or VAS any drug effect) of ≥60 mm after treatment. In some embodiments, the subject has a VAS score (e.g., Bond and Lader VAS, Bowdle VAS and Drug Rating VAS, and/or VAS any drug effect) of greater than or equal to 60 mm, 65 mm, 70 mm, 75 mm, 80 mm, 85 mm, 90 mm, or 95 mm, after treatment. In some embodiments, at least 50%, at least 55%, at least 60%, at least 65%, at least 70%, at least 75%, at least 80%, at least 85%, at least 90% of subjects treated with the methods described herein report a maximum VAS score (e.g., Bond and Lader VAS, Bowdle VAS and Drug Rating VAS, and/or VAS any drug effect) of greater than or equal to 60 mm, 65 mm, 70 mm, 75 mm, 80 mm, 85 mm, 90 mm, or 95 mm following treatment. In some embodiments, the subject has a maximum VAS any drug effect score of ≥60 mm after treatment. In some embodiments, the subject has a VAS any drug effect score of greater than or equal to 60 mm, 65 mm, 70 mm, 75 mm, 80 mm, 85 mm, 90 mm, or 95 mm, after treatment. In some embodiments, at least 50%, at least 55%, at least 60%, at least 65%, at least 70%, at least 75%, at least 80% of subjects treated with the methods described herein report a maximum VAS any drug effect score of greater than or equal to 60 mm, 65 mm, 70 mm, 75 mm, 80 mm, 85 mm, 90 mm, or 95 mm following treatment.\nA visual analogue scale will be completed by all participants on each day of dosing (Day 1 and Day 8 or Day 22) and will consist of a 100 mm bipolar line with the far left side of the line marked not at all, and the far right side of the line marked extremely. Participants will be asked “Right now, do you feel any drug effects at all?” and participants in response will make a vertical mark on the line on study dosing days predose and at 0.5, 1, 2, 4, 6, 8 and 12 hours postdose."}, "[2]": {"experiment": "Safety and tolerability (adverse events) in the Phase I/IIa study"}, "[3]": {"conditions": "all cohorts, psilocin-d10 n = 35"}, "[4]": {"conditions": "oral, equivalent doses, male Beagle dogs"}},
  "note": "Several values for one entry are separate records, joined by “and”; a condition that tells them apart may be missing. Identical values can stand only once.",
  "data": [
    {"smiles": "[2H]C([2H])([2H])N(C([2H])([2H])[2H])C([2H])([2H])C([2H])([2H])c1c[nH]c2cccc(O)c12", "note": "[psilocin-d10, 3-(2-(bis(methyl-d3)amino)ethyl-1,1,2,2-d4)-1H-indol-4-ol]", "values": [
      {"measurement": "subjects reporting maximum VAS-Any drug effect readings above 60 mm", "setting": "[1]; 8 mg oral, Cohort 2, 4 healthy volunteers", "value": 75, "unit": "%"},
      {"measurement": "Observed Mean Maximum VAS - Any drug effect", "setting": "[1]; 8 mg oral, Cohort 2 Day 8, NHV, N = 4", "value": 77.2},
      {"measurement": "individual VAS-Any drug effect scores of subjects with meaningful scores", "setting": "[1]; 8 mg, Cohort 2", "value": "100 mm and 97 mm and 89 mm"},
      {"measurement": "subjects reporting maximum VAS-Any drug effect readings above 60 mm", "setting": "[1]; 10 mg oral, Cohort 3, 3 healthy volunteers", "value": 66, "unit": "%"},
      {"measurement": "Observed Mean Maximum VAS - Any drug effect", "setting": "[1]; 10 mg oral, Cohort 3 Day 8, NHV, N = 3", "value": 78.3},
      {"measurement": "individual VAS-Any drug effect scores of subjects with meaningful scores", "setting": "[1]; 10 mg, Cohort 3", "value": 100, "unit": "mm"},
      {"measurement": "Observed Mean Maximum VAS - Any drug effect", "setting": "[1]; 12 mg oral, Cohorts 4 and 5 MDD, Day 1 or Day 22, blinded data incl. placebo subjects", "value": "80.7 and 80.7^3"},
      {"measurement": "median maximum VAS-Any drug effect score", "setting": "[1]; 12 mg, Cohorts 4 and 5 MDD", "value": 100, "unit": "mm"},
      {"measurement": "Observed Mean Maximum VAS - Any drug effect", "setting": "[1]; 16 mg oral, Cohort 6 MDD, Day 1 or Day 22, blinded data incl. placebo subjects, excluding vomited doses", "value": "89.2 and 89.2^2,3"},
      {"measurement": "median maximum VAS-Any drug effect score", "setting": "[1]; 16 mg, Cohort 6 MDD", "value": 100, "unit": "mm"},
      {"measurement": "subjects reporting maximum VAS-Any drug effect readings above 60 mm", "setting": "[1]; 16 mg, Cohort 6 MDD", "value": 79.2, "unit": "%"},
      {"measurement": "nausea at least possibly related to study treatment", "setting": "[2]; 8 mg", "value": "2 out of 4"},
      {"measurement": "nausea at least possibly related to study treatment", "setting": "[2]; 12 mg", "value": "6 out of 24"},
      {"measurement": "nausea at least possibly related to study treatment", "setting": "[2]; 16 mg", "value": "3 out of 12"},
      {"measurement": "headache at least possibly related to study treatment", "setting": "[2]; Cohort 3", "value": 1, "unit": "subject"},
      {"measurement": "headache at least possibly related to study treatment", "setting": "[2]; Cohort 4", "value": 1, "unit": "subject"},
      {"measurement": "vomiting at least possibly related to study treatment", "setting": "[2]; Cohort 4", "value": 1, "unit": "subject"},
      {"measurement": "vomiting at least possibly related to study treatment", "setting": "[2]; Cohort 6", "value": 3, "unit": "subjects"},
      {"measurement": "discontinuation due to AEs", "setting": "[2]; all cohorts", "value": "No participants discontinued due to AEs"},
      {"measurement": "Drug-related, treatment-emergent adverse events: At least one AE", "setting": "[2]; all cohorts incl. healthy volunteers, psilocin-d10 n = 35", "value": "21 (60.0) n (%)"},
      {"measurement": "Drug-related TEAE: Affect lability", "setting": "[2]; [3]", "value": "1 (2.9) n (%)"},
      {"measurement": "Drug-related TEAE: Anxiety", "setting": "[2]; [3]", "value": "2 (5.7) n (%)"},
      {"measurement": "Drug-related TEAE: Blood pressure increased", "setting": "[2]; [3]", "value": "5 (14.3) n (%)"},
      {"measurement": "Drug-related TEAE: Confusional state", "setting": "[2]; [3]", "value": "1 (2.9) n (%)"},
      {"measurement": "Drug-related TEAE: Dizziness", "setting": "[2]; [3]", "value": "1 (2.9) n (%)"},
      {"measurement": "Drug-related TEAE: Eructation", "setting": "[2]; [3]", "value": "1 (2.9) n (%)"},
      {"measurement": "Drug-related TEAE: Headache", "setting": "[2]; [3]", "value": "3 (8.6) n (%)"},
      {"measurement": "Drug-related TEAE: Nasal congestion", "setting": "[2]; [3]", "value": "1 (2.9) n (%)"},
      {"measurement": "Drug-related TEAE: Nausea", "setting": "[2]; [3]", "value": "6 (17.1) n (%)"},
      {"measurement": "Drug-related TEAE: Panic Attack", "setting": "[2]; [3]", "value": "1 (2.9) n (%)"},
      {"measurement": "Drug-related TEAE: Tachycardia", "setting": "[2]; [3]", "value": "1 (2.9) n (%)"},
      {"measurement": "Drug-related TEAE: Vomiting", "setting": "[2]; [3]", "value": "2 (5.7) n (%)"},
      {"measurement": "tolerability", "setting": "[2]; dosage levels up to 16 mg, 8 healthy volunteers and 38 participants with MDD", "value": "well tolerated without significant adverse effects"},
      {"measurement": "difference in systemic exposure versus psilocin", "setting": "dogs", "value": "~30", "unit": "%"},
      {"measurement": "higher concentration (Cmax) compared to psilocin after psilocybin", "setting": "[4]", "value": 31, "unit": "%"},
      {"measurement": "higher exposure (AUC) compared to psilocin after psilocybin", "setting": "[4]", "value": 38, "unit": "%"},
      {"measurement": "oral availability", "setting": "oral, female dogs", "value": 91.3, "unit": "%"}
    ]}
  ]
}
